Test system: gram positive bacteria
Assay: Inhibition of gram positive bacteria growth in corn mash media
Assay type: cell-based
Details: typical corn mash media
Procedure: If added just to a propagator the isopellets should be diluted down to 2 to 20 ppm in a fermenter. The hop acids employed are not limited to isomerized hop acids but can also be stabilized unisomerized hop pellets. The stabilized hop pellet, can be isomerized into isoalpha acids once placed into 70° C. or hotter hot water for thirty or more minutes. Once this isomerization is completed the mixture can be added to the yeast propagator or fermenter. The unexpected results include reduced levels of isoalpha acid required to inhibit gram positive bacteria growth, better antibacterial protection toward the end of fermentation, and increased yeast alcohol tolerance. Typically about 15 ppm of isoalpha acid is required to inhibit most gram positive bacteria growth in a typical corn mash media; however, we discovered that isomerized hop pellets made in accordance with the present invention can inhibit bacteria growth at an isoalpha acid dosage of about 12 ppm. While not wishing to be bound by theory, it is believed iso-pellets made in accordance with the present invention also contain beta acids, which are very effective at inhibiting gram positive bacteria growth. Unfortunately beta acids ordinarily are not soluble in corn mash or cereal fermentations, and thus their antibacterial effect is worthless. […]

Question: isoalpha acid was tested. Which “isoalpha acid dosage required to inhibit gram positive bacteria growth” value did it give?
Answer: about 15 ppm
